{"source": "patent US5660842A", "about": "“Inhibition of helicobacter” (Bristol-Myers Squibb Company, priority 1995, dated 1997)", "key": {"[1]": {"system": "Helicobacter pylori", "assay": "Viability of H. pylori after 1 hour in prototype nutritional compositions containing FFA or MG (Example 3, Table 6)", "format": "cell-based, Helicobacter pylori (ATCC 43629)", "settings": "for Change in viable cell number: 1 hour"}, "[2]": {"system": "Helicobacter pylori", "assay": "Bactericidal activity of MG and FFA of varying chain length (Example 4, FIG. 1)", "format": "cell-based, Helicobacter pylori HP-4 (ATCC 43629)", "settings": "FFA tested C4:0 to C17:0; 1 hour"}, "[3]": {"system": "Helicobacter pylori", "assay": "Minimal inhibitory concentration (MIC) for H. pylori (Example 5)", "format": "cell-based", "settings": "Helicobacter pylori, read-out: MIC"}, "[4]": {"system": "Helicobacter pylori", "format": "cell-based, Helicobacter pylori (HP-2, HP-4, HP-5)", "settings": "for Frequency of resistant mutants (number of spontaneous mutants): ~1 × 10^8 CFU"}, "[5]": {"settings": "concentrations as low as two times the MIC"}}, "note": "Like-named read-outs stand apart in the source and are kept apart here."}
{"smiles": "CCCCCCCCCCCC(=O)O", "note": "[Lauric Acid, lauric acid]", "values": [{"measurement": "Change in viable cell number", "setting": "[1]; Nutrament (Formulation II), 20 mM", "value": -0.42, "unit": "LOG CFU/mL"}, {"measurement": "Change in viable cell number", "setting": "[1]; Sustacal (Formulation I), 5 mM", "value": 0.00, "unit": "LOG CFU/mL"}, {"measurement": "Change in viable cell number", "setting": "[1]; Sustacal (Formulation I), 10 mM", "value": 0.05, "unit": "LOG CFU/mL"}, {"measurement": "Change in viable cell number", "setting": "[1]; Sustacal (Formulation I), 20 mM", "value": -3.33, "unit": "LOG CFU/mL"}, {"measurement": "Change in viable cell number", "setting": "[1]; Ultracal (Formulation III), 5 mM", "value": 0.33, "unit": "LOG CFU/mL"}, {"measurement": "Change in viable cell number", "setting": "[1]; Ultracal (Formulation III), 10 mM", "value": -1.05, "unit": "LOG CFU/mL"}, {"measurement": "Change in viable cell number", "setting": "[1]; Ultracal (Formulation III), 20 mM", "value": -3.96, "unit": "LOG CFU/mL"}, {"measurement": "Inhibition in nutritional compositions", "setting": "[1]; lower levels than 20 mM", "value": "not inhibitory"}, {"measurement": "Bactericidal activity for H. pylori", "setting": "[2]", "value": "showed bactericidal activity"}, {"measurement": "MIC", "setting": "[3]; Table 7", "value": 50, "unit": "µg/mL"}, {"measurement": "MIC", "setting": "[3]; preliminary studies", "value": "~50", "unit": "µg/mL"}, {"measurement": "Frequency of resistance", "setting": "[4]; [5]", "value": "< 1×10^-8"}, {"measurement": "Resistant variants of H. pylori", "setting": "[4]; [5]", "value": "no resistant variants of H. pylori were found"}, {"measurement": "Frequency of resistant mutants (number of spontaneous mutants)", "setting": "[4]; strain 43529 (so in the source), 2 × MIC", "value": "< 1"}, {"measurement": "Frequency of resistant mutants (number of spontaneous mutants)", "setting": "[4]; strain 43529 (so in the source), 5 × MIC", "value": "< 1"}, {"measurement": "Frequency of resistant mutants (number of spontaneous mutants)", "setting": "[4]; strain 43529 (so in the source), 10 × MIC", "value": "< 1"}, {"measurement": "Frequency of resistant mutants (number of spontaneous mutants)", "setting": "[4]; strain 43579, 2 × MIC", "value": "< 1"}, {"measurement": "Frequency of resistant mutants (number of spontaneous mutants)", "setting": "[4]; strain 43579, 5 × MIC", "value": "< 1"}, {"measurement": "Frequency of resistant mutants (number of spontaneous mutants)", "setting": "[4]; strain 43579, 10 × MIC", "value": "< 1"}, {"measurement": "Frequency of resistant mutants (number of spontaneous mutants)", "setting": "[4]; strain 49503, 2 × MIC", "value": "< 1"}, {"measurement": "Frequency of resistant mutants (number of spontaneous mutants)", "setting": "[4]; strain 49503, 5 × MIC", "value": "< 1"}, {"measurement": "Frequency of resistant mutants (number of spontaneous mutants)", "setting": "[4]; strain 49503, 10 × MIC", "value": "< 1"}]}
